“Also recorded” adds a separate entry of the source.
Assays:
H1975 and H1975-OR cells = experiment: MTT proliferation assay; assay type: cell-based; conditions: both parental and H1975-OR cell lines; 10 μM NGI-1, 5 days
Description: (§1) The H1975 and A549 cell lines were purchased from ATCC (Manassas, Va.), the PC9 cell line was a gift from Katie Politi, and the HCC-827 and HCC-827-GR lines were gifts from Jeff Engelman (MGH, Boston Mass.). Cell lines were cultured in RPMI 1640+10% FBS supplemented with penicillin and streptomycin (Gibco, Life Technologies, Grand Island, N.Y., US) in a humidified incubator with 5% CO2, and they were kept in culture no more than 4 months after resuscitation from the original stocks. No additional authentication was performed. Mycoplasma cell culture contamination was routinely checked and ruled out using the MycoAlert Mycoplasma Detection Kit (Lonza, Rockland, Me. USA). To generate a TKI resistant cell lines, either PC9 or H1975 cells were exposed to increasing concentrations of gefitinib or osimertinib, respectively. Gefitinib or Osimertinib concentrations were increased stepwise when cells resumed growth kinetics similar to the untreated parental cells over a dose range from 10 to 500 nM. Resistant cell cultures were obtained ˜8-12 weeks after initiation of drug exposure. To confirm the emergence of a therapeutic resistant, MTT assays were performed after allowing the cells to grow in drug-free conditions for at least 4 days.
(§2) Growth rates were determined by CellTiter 96 NonRadioactive Cell Proliferation Assay (Promega; Madison, Wis., USA) according to the manufacturer's directions. Briefly, NSCLC cells (2×103) untreated or treated with 10 μM NGI-1, 100 nM Gefitinib, or 1 μM Osimertinib (Selleck Chemicals), were seeded in triplicate in 96-wells plates and grown in culture medium containing 10% serum. The media was changed with or without new inhibitor every 48 h. Cell numbers were estimated after 0, 3, and 5 days by adding MTT (3-(4,5-dimethylthiazol-2-yl)-2,5-diphenyltetrazolium bromide) reagent to the wells 4 h before taking the spectrophotometric reading (absorbance at 570 nm).

PC9 and PC9-GR cells = experiment: MTT proliferation assay; assay type: cell-based; conditions: both parental and T790M expressing PC9 cell lines; 10 μM NGI-1, 5 days
Description: as §1, §2

[1] = tested on: HCC827 and HCC827-GR cells; experiment: MTT proliferation assay; assay type: cell-based; conditions: both parental and HCC827-GR cells; 10 μM NGI-1, 5 days
Description: as §1, §2

U251 cells = experiment: Phospho-γH2AX foci formation after radiation; assay type: cell-based; conditions: 2 hours after 4 Gy, 10 μM NGI-1
Description: (§3) To determine histone H2AX phosphorylation (γH2AX), cells were cultured on glass cover slips and pre-treated with either vehicle or NGI-1 for 48 hours followed by radiation treatment. Samples were fixed with 4% neutral-buffered formaldehyde, washed (0.1% triton in PBS for 30 minutes) and incubated for 1 hour with protein-blocking solution (PBS containing 10% normal goat-horse serum; Sigma-Aldrich, Saint Louis, Mich., US). Next, the slides were incubated with primary anti-phospho-histone γH2AX S139 (1:500, Millipore-Upstate, Billerica, Mass., US) followed by incubation with secondary antibody Alexa Fluor 555-conjugated goat anti-mouse IgG (1:750, Molecular probes/Invitrogen, Carlsbad, Calif., US), for 1 hour at room temperature. Nuclei were stained using DAPI containing vectashield mounting solution (Vector Labs). Confocal cellular images were captured with an inverted Zeiss LSM 510 Pascal laser confocal microscope (C. Zeiss, Jenna, Germany), using a 63/1.4 plan-apochromat objective. Five randomly selected fields s per slide were analyzed. Cells were counted using the ImageJ program, public domain Java image processing software.

SKMG3 cells = experiment: Cell cycle distribution by flow cytometry; assay type: cell-based, human
Description: Cell cycle distribution was determined following treatment with vehicle, radiation and/or 10 uM NGI-1. Cells were trypsinized and centrifuged, washed once with ice-cold PBS, fixed with ice-cold 70% ethanol and stored overnight at −20° C. After washing twice with PBS, they were incubated for 30 minutes at room temperature in 200 μL of Guava Cell Cycle Reagent (Guava Technologies). Cytofluorometric acquisitions were performed on a LSRII cytometer (BD Biosciences). First-line analysis was performed with FlowJo software, upon gating of the events characterized by normal forward and side scatter parameters and discrimination of doublets in a FSC-A vs. FSC-H bivariate plot. Approximately 50,000 cells were analyzed per experiment.

SKMG3-CD8-EGFR cells = experiment: Phospho-γH2AX foci formation; assay type: cell-based, human
Description: as §3
The CD8 cDNA was a gift from Paula Kavathas (Yale University). The CD8-EGFR was constructed according to a strategy that generated a constitutively active IGF-1R (24). […]

Solubility = assay type: physicochemical
[2] = tested on: D54, SKMG3, T98G or U251 cells; experiment: Glioma cell proliferation (CellTiter 96), NGI-1 alone or with cytotoxic chemotherapy; assay type: cell-based
Description: Radiation (XRT) doses of either 0, 2, 4, or 6 Gy were delivered with a Precision X-ray 320-kV orthovoltage unit at a dose rate of 2 Gy/45 seconds (PXI X-Ray Systems). Twenty-four hours following XRT cells were washed, trypsinized, and re-plated in triplicate wells to determine clonogenic survival. […] Growth rates were determined by CellTiter 96 Non-Radioactive Cell Proliferation Assay (Promega; Madison, Wis., USA) according to the manufacturer's directions. For each experiment one thousand cells were seeded in triplicate wells in 96-wells plates. The following day, cell cultures were treated with NGI-1 (1 μM), Temozolomide (TMZ, 10 μM), Etoposide (VP-16, 0.1 μM) or combinations for 5 days. Absorbance at 540 nm was measured using the spectrophotometric reading (BioTek Synergy 2; Winooski, Vt. USA).

In the case of `Cc1cnc(NC(=O)c2cc(S(=O)(=O)N(C)C)ccc2N2CCCC2)s1` [NGI-1, 5-(dimethylsulfamoyl)-N-(5-methyl-1,3-thiazol-2-yl)-2-(pyrrolidin-1-yl)benzamide], the reduction of proliferation (H1975 and H1975-OR cells) was “more than 70%”, the reduction of proliferation (PC9 and PC9-GR cells) was ~90% and the reduction of proliferation [1] was 80%. The “enhancement of phospho-γH2AX foci formation” value (U251 cells) was “no enhancement”, the “cells in G1 (G1 arrest)” value (SKMG3 cells; SKMG3, 48 hours of 10 uM NGI-1, control 69%) was 78% and the “cells in G1 six hours after 4 Gy” value (SKMG3 cells; SKMG-3, NGI-1 + 4 Gy, 56% without NGI-1) was 72%. For the same molecule, the phospho-γH2AX foci formation (SKMG3-CD8-EGFR cells) was “no effect”, the solubility (Solubility) was “low solubility; also recorded: solubility remains a significant challenge” and the “glioma cell line proliferation, dose response” value ([2]; D54, SKMG3, U251 and T98G, 5 days of drug exposure) was “sensitive”. For the same molecule, the “proliferation, NGI-1 combined with TMZ or VP-16” value ([2]; D54 and SKMG3, NGI-1 1 μM with TMZ 10 μM or VP-16 0.1 μM, 5 days, not synergistic) was “further reduced glioma cell proliferation” and the “enhancement of the anti-proliferative effects of TMZ or VP-16” value ([2]; T98G or U251 cells, NGI-1 1 μM, 5 days) was “did not enhance”.
